For this assay, the target named is Beta-lactamase (Pseudomonas aeruginosa) (UniProt Q932Y6). Kind of assay: Ki and modality of VIM-2 inhibitors – biochemical, probe results, mechanism study, late-stage follow-up (AID 2128). Particulars: purified enzyme, nitrocefin hydrolysis absorbance/fluorescence, enzyme assay, VIM-2 inhibition constant, kinetics.

The structures appear in SMILES notation. pKi: −log10 of the molar value.

This note sets out measurements from PubChem BioAssay AID2128 (The Scripps Research Institute Molecular Screening Center, 2009).

For orientation: pKi means the negative decadic logarithm of the Ki, by convention in mol/L.

Take `O=c1[nH]c2c(s1)C(c1cccnc1)C1C3CCC(C3)C1S2` (stereo unspecified): the pKi was 6.83.
